Reference: patent publication US7399743B2, “Targeted thrombosis” (The Scripps Research Institute, priority 2001, dated 2008)
“Also recorded” adds a separate entry of the source.

What was measured:
[1] = test system: LnCap cells; test: cell proliferation and viability assay (trypan blue); details: without / with D-β-E 0.1 uM
Protocol: A cell proliferation and viability assay was employed to assess DβE inhibitor activity using trypan blue staining. LnCap cells (4×10^4 cells/well) were seeded in 96 well plates. Different concentrations of the DβE inhibitor or the Asp-Glu (D-E) substrate were added to the media as indicated. The % cell viability was determined 48 hours after treatment as the number of living cells (unstained) divided by total cells count (stain+unstained cells).
A cell proliferation and viability assay was employed to assess DβE inhibitor activity using trypan blue staining. LnCap cells (4×10^4 cells/well) were seeded in 96 well plates. Different concentrations of the DβE inhibitor or the Asp-Glu (D-E) substrate were added to the media at the concentrations indicated in FIG. 13A. The % cell viability was determined 48 hours after treatment as the number of living cells (unstained) divided by total cells count (stain+unstained cells).
The cytotoxic effect of methotrexate was assessed with and without the presence of the PSMA inhibitor (D-β-E) or PSMA substrate (D-E) using a cell proliferation and viability assay.

[2] = test system: integrin-expressing CHO K1 cells; test: cell-mediated coagulation assay with CHO K1 cells and human plasma; assay type: cell-based
Protocol: Coagulation assays were performed using an established procedure with some modifications to include a step for binding Tissue Factor constructs to cells. Platelet depleted, citrated human plasma pooled from multiple donors was used for these experiments. Cells are dislodged with trypsin free cell dissociation buffer (Gibco), and washed twice with TBS. Cells were then counted with cytometer. Only cells with viability greater than 90% were used for the assay. Varying concentrations of thrombogen were incubated with 10^5 cells in 100 ul TBS containing Ca^++ 10 mM and Mg^++ 5 mM for 15 minutes at 37° C. The assays were initiated by addition of 100 ul of pooled citrated plasma pre-warmed to 37° C. Clotting times were recorded as the interval between assay initiation and clot appearance.
Activation of the coagulation cascade was measured using a coagulation assay. Varying concentrations of Fn-TF or Tissue Factor were incubated with CHO K1 cells for 15 minutes. Coagulation assays were initiated with addition of 100 ul of pooled normal human plasma. The coagulation time was recorded as the interim between the initiation of assay and the appearance of the first fibrin strands.

[3] = median lethal dose in mice; assay type: in vivo; details: 20 gm Balb/C mice
[4] = test system: integrin on CHO cells; test: binding of Fn-TF to integrin-expressing CHO K1 cells (Western blot); details: for association with CHO cells: varying concentrations, 10^5 CHO K1 cells
Protocol: The binding of the Fn-TF protein to the integrin on CHO cells was monitored through direct incubation of varying concentrations of recombinant Fn-TF with 10^5 CHO K1 cells in TBS, 10 mM CaCl2, 5 mM MgSO4. The bound and unbound proteins were separated by centrifugation, and the bound Tissue Factor immunoreactivity was detected by Western blot. The amount of Tissue Factor bound was quantified by comparing the intensity of resulting bands on the membrane to that of a standard curve of Tissue Factor protein of known concentration using a densitometer.

[5] = molecular target: T1, Factor VIIa (Homo sapiens, UniProt P08709); test: amidolytic assay of Factor VIIa bound to Fn-TF or TF 1-218; assay type: biochemical; details: Factor VIIa 5nM, chromozym t-PA
T1 sequence (P08709 61-212 limits assumed): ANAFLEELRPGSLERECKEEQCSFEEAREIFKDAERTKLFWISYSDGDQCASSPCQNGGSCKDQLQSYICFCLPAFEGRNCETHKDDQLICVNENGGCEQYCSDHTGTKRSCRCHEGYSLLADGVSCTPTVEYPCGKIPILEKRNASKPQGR
T1 sequence (P08709 213-466 limits assumed): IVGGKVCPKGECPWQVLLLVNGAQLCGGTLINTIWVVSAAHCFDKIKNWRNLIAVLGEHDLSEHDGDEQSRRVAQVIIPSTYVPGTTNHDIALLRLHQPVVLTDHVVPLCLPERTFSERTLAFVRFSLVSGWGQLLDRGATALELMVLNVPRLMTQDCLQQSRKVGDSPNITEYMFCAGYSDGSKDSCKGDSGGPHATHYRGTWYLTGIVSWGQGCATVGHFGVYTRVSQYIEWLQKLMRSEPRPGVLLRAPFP
Protocol: The catalytic activity of Factor VIIa bound to Fn-TF for a peptidyl substrate was analyzed by hydrolysis of chromozym t-Pa (Boehringer Mannheim) and compared with that of the soluble TF 1-218. Varying concentrations TF 1-218 or Fn-TF were incubated with Factor VIIa at a final concentration of 5nM in the presence of 5 mM Ca^++ at ambient temperature for 15 minutes. Chromozym t-PA was added to a concentration of 1 mM. The initial rate of hydrolysis was measured at 406 nm with a kinetic micro-titer plate reader for 1 minute.

[6] = test system: Factor X; test: proteolytic activity of TF construct:Factor VIIa complexes toward Factor X; assay type: biochemical; details: soluble complexes, increasing concentration
Protocol: The proteolytic activities of both Fn-TF:Factor VIIa and TF 1-218:Factor VIIa complexes toward Factor X were determined by a functional assay (Schullek, Ruf et al. 1994) using Spectrozyme Factor Xa to assess Factor Xa generation. Briefly, varying concentrations of Fn-TF and TF1-218 were pre-incubated with Factor VIIa (75 nM) for 5 minutes at 37° C. in the presence of 5 mM CaCl2. The reaction was initiated by addition of substrate Factor X (1.5 uM). After incubation for 10 minutes at 37° C., the reaction was terminated by adding EDTA to a concentration of 0.1M. The amount of Factor Xa generated was determined by measuring Factor Xa amidolytic activity using […] of the chromogenic substrate Spectrozyme Fxa (American Diagnostica, Greenwich, Conn.). The rate of absorbance increase at 405 nM was measured in a kinetic micro-titer plate reader.
The effect of the fused docking structure on the proteolytic activity of TF:VIIa was studied by a linked functional assay (Schullek, Ruf et al. 1994). Varying concentrations of Fn-TF or TF1-218 were allowed to bind to 10 pM Factor VIIa for 5 minutes. […] The reaction was stopped by addition of 50 mM EDTA and the amount of Factor Xa generated was determined by measuring the Factor Xa amidolytic activity in the assay mixture using spetrozyme FXa as described above.

[7] = molecular target: NAALADase; details: read-out: Ki, inhibition of NAALADase activity; cited from earlier work
[8] = test system: factor X; details: native Tissue Factor in phospholipid membrane environment; cited from earlier work

CN(Cc1cnc2nc(N)nc(N)c2n1)c1ccc(C(=O)N[C@@H](CCC(=O)O)C(=O)O)cc1 [MTX, methotrexate]
ID50/ID50* (enhancement of tumoricidal activity) [1]: 20

RGDS: RGDS (SEQ ID NO: 17) peptide that binds integrin (A RGDS peptide.) [reference compound]
inhibition of Fn-TF coagulation activity by RGDS peptide ([2]; Fn-TF (20 nM)+RGDS (500 μM), CHO K1 cells): fully blocked; also recorded: almost completely inhibited

Fn-TF: fusion of fibronectin type III repeat domains 8-11 (SEQ ID NO:9) or domain 10 (SEQ ID NO:10) with Tissue Factor residues 3-218
LD50 (median lethal dose) [3]: about 8 ug
coagulation activity compared with CHO K1 cells expressing approximately 5×10^5 native Tissue Factor molecules ([2]; 75 nM Fn-TF, 10^5 CHO K1 cells): approximately the same level of coagulation activity
coagulation activity ([2]; approximately 100,000 Fn-TF:integrin complexes per cell, CHO K1 cells): 40,000 milliunits
coagulation time ([2]; approximately 100,000 Fn-TF:integrin complexes per cell, CHO K1 cells, human plasma): about 20 seconds
Fn-TF molecules bound per cell ([4]; 75 nM Fn-TF incubated with 10^5 CHO K1 cells in 100 ul): approximately 5×10^5
association with CHO cells [4]: increasing amounts of Fn-TF become associated with CHO cells
cofactor enhancement of Factor VIIa amidolytic activity, compared with Tissue Factor [5]: Very little difference in amidolytic activity
proteolytic activity of the Factor VIIa complex toward Factor X [6]: increased proteolytic activity similar to the curve obtained with TF1-218

N[C@@H](Cn1oc(=O)[nH]c1=O)C(=O)O [Quisqalic acid, quisqalic acid]
Ki [7]: 1900 nM

B1: truncated Tissue Factor: recombinant Tissue Factor containing only the extracellular domain, 219 amino acids, soluble (protein, listed as Homo sapiens)
chain: SGTTNTVAAYNLTWKSTNFKTILEWEPKPVNQVYTVQISTKSGDWKSKCFYTTDTECDLTDEIVKDVKQTYLARVFSYPAGNVESTGSAGEPLYENSPEFTPYLETNLGQPTIQSFEQVGTKVNVTVEDERTLVRRNNTFLSLRDVFGKDLIYTLYYWKSSSSGKKTAKTNTNEFLIDVDKGENYCFSVQAVIPSRTVNRKSTDSPVECMGQEKGEFRE
times less factor X-activating activity than native Tissue Factor [8]: approximately 10^5

B2: TF1-218: soluble extracellular domain of human Tissue Factor, SEQ ID NO:4 (protein, listed as Homo sapiens)
chain: SGTTNTVAAYNLTWKSTNFKTILEWEPKPVNQVYTVQISTKSGDWKSKCFYTTDTECDLTDEIVKDVKQTYLARVFSYPAGNVESTGSAGEPLYENSPEFTPYLETNLGQPTIQSFEQVGTKVNVTVEDERTLVRRNNTFLSLRDVFGKDLIYTLYYWKSSSSGKKTAKTNTNEFLIDVDKGENYCFSVQAVIPSRTVNRKSTDSPVECMGQEKGEFR
LD50 (median lethal dose) [3]: greater than 500 ug
association with CHO cells [4]: no demonstrable association
